Columns and labels:
Assay type in all cases: biochemical
[1] = target: T1, recombinant human DPP7 (Homo sapiens, UniProt Q9UHL4); test: DPP7 inhibition, fluorogenic substrate Lys-Pro-AMC; settings: recombinant human DPP7
T1 construct: purchased R&D Systems
Summary of the method: (§1)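 Inhibitors are titrated in an 8-point series into the enzyme's assay buffer (DMSO no more than 0.5%). Substrate cleavage at 25 °C is followed by fluorescence, excitation 380 nm and emission 460 nm. IC50 values come from a four-variable logistic model.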

[2] = target: T2, recombinant human DPP9 (Homo sapiens, UniProt Q86TI2); test: DPP9 inhibition, fluorogenic substrate H-Gly-Pro-AMC; settings: recombinant human DPP9
T2 construct: purchased R&D Systems
T2 sequence (Q86TI2 whole entry): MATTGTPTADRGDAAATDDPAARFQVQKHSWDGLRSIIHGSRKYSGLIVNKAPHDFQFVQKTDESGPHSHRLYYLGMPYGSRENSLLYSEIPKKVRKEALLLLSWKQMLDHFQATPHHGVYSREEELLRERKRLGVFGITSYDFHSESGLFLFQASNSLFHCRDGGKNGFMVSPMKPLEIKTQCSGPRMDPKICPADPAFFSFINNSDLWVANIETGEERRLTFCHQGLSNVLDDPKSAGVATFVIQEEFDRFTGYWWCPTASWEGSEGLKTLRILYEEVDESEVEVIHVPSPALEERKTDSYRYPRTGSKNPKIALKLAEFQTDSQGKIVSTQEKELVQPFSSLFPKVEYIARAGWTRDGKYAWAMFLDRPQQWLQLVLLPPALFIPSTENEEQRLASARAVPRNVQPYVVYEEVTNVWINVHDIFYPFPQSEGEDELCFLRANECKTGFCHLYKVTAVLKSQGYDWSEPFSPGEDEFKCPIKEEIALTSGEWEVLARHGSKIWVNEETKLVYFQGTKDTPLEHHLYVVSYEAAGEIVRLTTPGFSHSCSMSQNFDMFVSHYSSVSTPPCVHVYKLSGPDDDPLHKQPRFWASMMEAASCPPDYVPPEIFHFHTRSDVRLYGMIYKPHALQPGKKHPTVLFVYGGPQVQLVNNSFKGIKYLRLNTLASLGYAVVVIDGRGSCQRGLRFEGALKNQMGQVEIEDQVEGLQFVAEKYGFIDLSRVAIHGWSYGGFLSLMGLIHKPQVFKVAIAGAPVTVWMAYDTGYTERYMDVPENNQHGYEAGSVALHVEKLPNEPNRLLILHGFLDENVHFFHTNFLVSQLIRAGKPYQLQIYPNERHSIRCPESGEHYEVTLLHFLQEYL
Summary of the method: as §1

[3] = target: T3, recombinant human PREP (Homo sapiens, UniProt P48147); test: PREP inhibition, fluorogenic substrate Z-Gly-Pro-AMC; settings: Inhibitory Activity (IC50, nM) PREP, recombinant human PREP
T3 construct: purchased R&D System
T3 sequence (P48147 1-710): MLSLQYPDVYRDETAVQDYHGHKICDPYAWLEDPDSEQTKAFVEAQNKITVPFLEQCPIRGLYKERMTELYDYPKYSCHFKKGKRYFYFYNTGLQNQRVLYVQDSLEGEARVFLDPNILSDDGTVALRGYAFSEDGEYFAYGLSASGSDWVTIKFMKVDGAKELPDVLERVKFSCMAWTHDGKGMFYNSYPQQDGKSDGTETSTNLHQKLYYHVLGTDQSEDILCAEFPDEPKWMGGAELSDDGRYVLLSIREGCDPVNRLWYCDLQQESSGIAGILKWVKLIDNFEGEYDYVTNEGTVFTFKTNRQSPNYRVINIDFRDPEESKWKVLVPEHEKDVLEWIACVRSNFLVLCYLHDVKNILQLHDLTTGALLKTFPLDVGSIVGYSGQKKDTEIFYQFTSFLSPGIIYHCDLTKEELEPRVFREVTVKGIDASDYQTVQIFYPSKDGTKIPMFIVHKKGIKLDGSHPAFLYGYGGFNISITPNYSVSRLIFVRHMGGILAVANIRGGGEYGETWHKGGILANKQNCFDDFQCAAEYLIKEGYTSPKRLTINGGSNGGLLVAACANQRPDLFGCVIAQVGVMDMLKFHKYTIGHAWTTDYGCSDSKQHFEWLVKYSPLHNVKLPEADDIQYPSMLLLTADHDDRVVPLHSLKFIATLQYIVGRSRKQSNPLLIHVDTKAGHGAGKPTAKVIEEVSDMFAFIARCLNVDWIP
Experimental: The compounds according to the present technology were evaluated in terms of the inhibitory effect on the activity of dipeptidyl peptidases including FAP by using a substrate producing fluorescent substances upon enzymatic decomposition. The test was conducted at 25° C. to get a final reaction volume of 100 μL in a 96 black well plate. […] Briefly, the test compounds were dissolved in dimethyl sulfoxide (DMSO) at a concentration of 20 mM and then subjected to serial dilution, thereby creating an 8 point curve. As for the control group, a 6 point curve created by serial dilution of Talabostat in the same buffer solution was used. Fluorescence intensity was measured using a microplate reader (Flexstation3, Molecular Devices) under the wavelength condition exciting at 380 nm and reading the emission at 460 nm. The inhibitory effect of the test compounds was measured as a decrease (%) in the signal rate as compared to the control group without any inhibitor. Data was fixed to a logistic model with four variables and IC50 value was calculated using GraphPad Prism program. As for recombinant human DPP4 (R&D Systems), 25 mM tris (pH 8.0) buffer as a buffer solution and H-Gly-Pro-AMC (Bachem) as a substrate were used. As for recombinant human DPP7 (R&D Systems), 25 mM MES (pH 6.0) buffer as a buffer solution and Lys-Pro-AMC (Bachem) as a substrate were used. As for recombinant human DPP8 (PBS Bioscience), as a buffer solution, a 10 mM tris (pH 7.4) buffer comprising 10 mM of magnesium chloride and 0.05% of Tween 20, and Z-Ala-Pro-AMC (BPS Bioscience) as a substrate were used. As for recombinant human DPP9 (R&D Systems), a 25 mM tris (pH 8.0) buffer as a buffer solution and H-Gly-Pro-AMC (Bachem) as a substrate were used. As for recombinant human PREP (R&D System), as a buffer solution, a 25 mM tris (pH 7.5) buffer comprising 250 mM sodium chloride and 2.5 mM DTT (Dithiolthreitol), and Z-Gly-Pro-AMC (Bachem) as a substrate were used. The evaluation was made by using 10 ng of DPP4, PDD7, and PREP, 20 ng of DPP8, and 50 ng of DPP9 based on the final reaction. In the evaluation of DPP4, the test compounds were subjected to serial dilution in a buffer under the condition containing up to 0.1% of DMSO. In the evaluation of DPP7, DPP8, DPP9, and PREP, the test compounds were subjected to serial dilution in each buffer under the condition containing up to 0.5% of DMSO.

[4] = target: T4, Recombinant human FAP (Homo sapiens, UniProt Q12884); test: FAP FRET assay, FGF21-sequence FRET peptide substrate; settings: FRET peptide with human FGF21 sequence, 6 μM, 37° C.
T4 construct: purchased R&D systems
T4 sequence (Q12884 1-760): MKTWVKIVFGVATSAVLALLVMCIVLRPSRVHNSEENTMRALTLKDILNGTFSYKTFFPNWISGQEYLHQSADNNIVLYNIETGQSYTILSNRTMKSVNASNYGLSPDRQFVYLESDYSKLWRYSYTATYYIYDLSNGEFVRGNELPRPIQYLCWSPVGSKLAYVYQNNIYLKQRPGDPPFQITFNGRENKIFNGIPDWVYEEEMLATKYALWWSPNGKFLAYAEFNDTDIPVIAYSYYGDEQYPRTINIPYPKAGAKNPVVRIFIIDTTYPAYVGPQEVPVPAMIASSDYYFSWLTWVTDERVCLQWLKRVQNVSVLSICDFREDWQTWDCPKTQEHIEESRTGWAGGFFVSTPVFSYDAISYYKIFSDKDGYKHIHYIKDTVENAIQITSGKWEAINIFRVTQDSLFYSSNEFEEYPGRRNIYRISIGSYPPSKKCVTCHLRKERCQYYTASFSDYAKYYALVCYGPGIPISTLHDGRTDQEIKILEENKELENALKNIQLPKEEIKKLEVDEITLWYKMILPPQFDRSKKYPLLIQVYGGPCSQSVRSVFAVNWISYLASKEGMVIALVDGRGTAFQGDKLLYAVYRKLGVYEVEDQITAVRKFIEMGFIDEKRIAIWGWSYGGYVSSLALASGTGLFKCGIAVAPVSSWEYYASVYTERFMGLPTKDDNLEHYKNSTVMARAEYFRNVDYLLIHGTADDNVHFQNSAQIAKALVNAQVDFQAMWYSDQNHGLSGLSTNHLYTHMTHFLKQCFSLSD
Summary of the method: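 FRET peptide bearing human FGF21 sequence (6 μM final) cleaved by 10 ng recombinant human FAP at 37° C in HEPES pH 7.2 buffer with NaCl, BSA and EDTA, DMSO up to 0.1%. Signal-rate decrease versus uninhibited control fitted to a four-variable logistic model for IC50.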

[5] = target: DPP4 (Homo sapiens, UniProt P27487); test: DPP4 inhibition, fluorogenic substrate H-Gly-Pro-AMC; design: purchased R&D Systems; settings: recombinant human DPP4
Chain of DPP4 (P27487 whole entry): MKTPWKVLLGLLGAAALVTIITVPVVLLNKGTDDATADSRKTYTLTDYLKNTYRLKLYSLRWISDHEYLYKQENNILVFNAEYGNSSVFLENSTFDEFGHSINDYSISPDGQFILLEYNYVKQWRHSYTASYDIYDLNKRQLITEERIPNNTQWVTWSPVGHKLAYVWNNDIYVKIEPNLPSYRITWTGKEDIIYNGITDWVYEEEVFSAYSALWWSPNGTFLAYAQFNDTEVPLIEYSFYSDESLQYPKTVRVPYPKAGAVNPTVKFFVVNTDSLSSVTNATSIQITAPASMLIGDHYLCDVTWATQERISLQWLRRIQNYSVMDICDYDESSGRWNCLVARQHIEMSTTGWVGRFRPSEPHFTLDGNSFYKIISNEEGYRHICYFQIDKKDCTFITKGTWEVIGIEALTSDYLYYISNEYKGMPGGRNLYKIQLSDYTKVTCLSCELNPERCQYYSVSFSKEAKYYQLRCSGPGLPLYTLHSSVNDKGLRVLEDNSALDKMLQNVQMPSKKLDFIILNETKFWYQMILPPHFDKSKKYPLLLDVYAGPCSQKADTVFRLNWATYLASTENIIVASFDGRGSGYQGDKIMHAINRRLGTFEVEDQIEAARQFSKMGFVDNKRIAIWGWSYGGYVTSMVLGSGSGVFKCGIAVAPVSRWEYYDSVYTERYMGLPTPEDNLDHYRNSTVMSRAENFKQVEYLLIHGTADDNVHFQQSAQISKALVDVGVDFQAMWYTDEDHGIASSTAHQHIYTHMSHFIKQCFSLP

Structure (SMILES): N#C[C@@H]1CCCN1C(=O)CN1CC[C@@H](Nc2cccc3ncc(Cl)cc23)C1 [Example 203, (2S)-1-[2-[(3R)-3-[(3-chloro-5-quinolyl)amino]pyrrolidin-1-yl]acetyl]pyrrolidine-2-carbonitrile]
- IC50 [1]: 3.26 µM
- IC50 [2]: 11.2 µM
- IC50 [3]: 12200 nM
- IC50 [4]: 0.0009 µM
- IC50 [5]: 4.66 µM

Structure (SMILES): COc1cnc2cccc(N[C@@H]3CCN(CC(=O)N4CCC[C@H]4C#N)C3)c2c1 [Example 204, (2S)-1-[2-[(3R)-3-[(3-methoxy-5-quinolyl)amino]pyrrolidin-1-yl]acetyl]pyrrolidine-2-carbonitrile]
- IC50 [1]: 3.87 µM
- IC50 [2]: 16.2 µM
- IC50 [3]: 11500 nM
- IC50 [4]: 0.0021 µM
- IC50 [5]: 6.2 µM

Structure (SMILES): COc1cnc2cccc(N[C@@H]3CCN(CC(=O)N4C[C@@H](F)C[C@H]4C#N)C3)c2c1 [Example 205, (2S,4S)-4-fluoro-1-[2-[(3R)-3-[(3-methoxy-5-quinolyl)amino]pyrrolidin-1-yl]acetyl]pyrrolidine-2-carbonitrile]
- IC50 [1]: 1.76 µM
- IC50 [2]: 3.04 µM
- IC50 [3]: 7500 nM
- IC50 [4]: 0.0026 µM
- IC50 [5]: 0.796 µM

Structure (SMILES): Cc1cnc2cccc(N[C@@H]3CCN(CC(=O)N4CCC[C@H]4C#N)C3)c2c1 [Example 208, (2S)-1-[2-[(3R)-3-[(3-methyl-5-quinolyl)amino]pyrrolidin-1-yl]acetyl]pyrrolidine-2-carbonitrile]
- IC50 [1]: 1.37 µM
- IC50 [2]: 19.2 µM
- IC50 [3]: 12000 nM
- IC50 [4]: 0.0017 µM
- IC50 [5]: 6.51 µM

Structure (SMILES): N#C[C@@H]1C[C@H](F)CN1C(=O)CN1CC[C@@H](Nc2ccc3nc(C(F)(F)F)ccc3c2)C1 [Example 210, (2S,4S)-4-fluoro-1-[2-[(3R)-3-[[2-(trifluoromethyl)-6-quinolyl]amino]pyrrolidin-1-yl]acetyl]pyrrolidine-2-carbonitrile]
- IC50 [1]: 0.281 µM
- IC50 [2]: 1.3 µM
- IC50 [3]: 1480 nM
- IC50 [4]: 0.0035 µM
- IC50 [5]: 2.7 µM

Structure (SMILES): Cc1cnc2ccc(N[C@@H]3CCN(CC(=O)N4C[C@@H](F)C[C@H]4C#N)C3)cc2c1 [Example 211, (2S,4S)-4-fluoro-1-[2-[(3R)-3-[(3-methyl-6-quinolyl)amino]pyrrolidin-1-yl]acetyl]pyrrolidine-2-carbonitrile]
- IC50 [1]: 0.369 µM
- IC50 [2]: 0.657 µM
- IC50 [3]: 2740 nM
- IC50 [4]: 0.0052 µM
- IC50 [5]: 1.8 µM

Structure (SMILES): COc1ccnc2ccc(N[C@@H]3CCN(CC(=O)N4C[C@@H](F)C[C@H]4C#N)C3)cc12 [Example 212, (2S,4S)-4-fluoro-1-[2-[(3R)-3-[(4-methoxy-6-quinolyl)amino]pyrrolidin-1-yl]acetyl]pyrrolidine-2-carbonitrile]
- IC50 [1]: 0.206 µM
- IC50 [2]: 1.16 µM
- IC50 [3]: 5230 nM
- IC50 [4]: 0.008 µM
- IC50 [5]: 1.96 µM

Structure (SMILES): Cc1cc(N[C@@H]2CCN(CC(=O)N3C[C@@H](F)C[C@H]3C#N)C2)cc2cccnc12 [Example 213, (2S,4S)-4-fluoro-1-[2-[(3R)-3-[(8-methyl-6-quinolyl)amino]pyrrolidin-1-yl]acetyl]pyrrolidine-2-carbonitrile]
- IC50 [1]: 0.393 µM
- IC50 [2]: 1.39 µM
- IC50 [3]: 3020 nM
- IC50 [4]: 0.0035 µM
- IC50 [5]: 1.74 µM

Structure (SMILES): N#C[C@@H]1C[C@H](F)CN1C(=O)CN1CC[C@@H](Nc2cc(F)c3ncccc3c2)C1 [Example 214, (2S,4S)-4-fluoro-1-[2-[(3R)-3-[(8-fluoro-6-quinolyl)amino]pyrrolidin-1-yl]acetyl]pyrrolidine-2-carbonitrile]
- IC50 [1]: 0.764 µM
- IC50 [2]: 0.97 µM
- IC50 [3]: 3030 nM
- IC50 [4]: 0.0038 µM
- IC50 [5]: 1.29 µM

Structure (SMILES): N#C[C@@H]1C[C@H](F)CN1C(=O)CN1CC[C@@H](Nc2cc(Cl)c3ncccc3c2)C1 [Example 215, (2S,4S)-4-fluoro-1-[2-[(3R)-3-[(8-chloro-6-quinolyl)amino]pyrrolidin-1-yl]acetyl]pyrrolidine-2-carbonitrile]
- IC50 [1]: 0.544 µM
- IC50 [2]: 0.631 µM
- IC50 [3]: 3150 nM
- IC50 [4]: 0.0015 µM
- IC50 [5]: 1.16 µM

Structure (SMILES): N#C[C@@H]1C[C@H](F)CN1C(=O)CN1CC[C@@H](Nc2cc(C(F)(F)F)c3ncccc3c2)C1 [Example 216, (2S,4S)-4-fluoro-1-[2-[(3R)-3-[[8-(trifluoromethyl)-6-quinolyl]amino]pyrrolidin-1-yl]acetyl]pyrrolidine-2-carbonitrile]
- IC50 [1]: 0.399 µM
- IC50 [2]: 0.822 µM
- IC50 [3]: 2560 nM
- IC50 [4]: 0.0017 µM
- IC50 [5]: 1.35 µM

Structure (SMILES): CCOc1ccc(N[C@H]2CCN(CC(=O)N3CCC[C@H]3C#N)C2)c2cccnc12 [Example 274, (2S)-1-[2-[(3S)-3-[(8-ethoxy-5-quinolyl)amino]pyrrolidin-1-yl]acetyl]pyrrolidine-2-carbonitrile]
- IC50 [1]: 0.96 µM
- IC50 [2]: 5.55 µM
- IC50 [3]: 14900 nM
- IC50 [4]: 0.0044 µM
- IC50 [5]: 11 µM

Structure (SMILES): CCOc1ccc(N[C@H]2CCN(CC(=O)N3C[C@@H](F)C[C@H]3C#N)C2)c2cccnc12 [Example 275, (2S,4S)-4-fluoro-1-[2-[(3S)-3-[(8-ethoxy-5-quinolyl)amino]pyrrolidin-1-yl]acetyl]pyrrolidine-2-carbonitrile]
- IC50 [1]: 0.0904 µM
- IC50 [2]: 1.59 µM
- IC50 [3]: 6120 nM
- IC50 [4]: 0.0017 µM
- IC50 [5]: 1.43 µM
